The record followed here is patent US20180064665A1 (UNIVERSITY-INDUSTRY COOPERATION GROUP OF KYUNG HEE …, priority 2015, published 2018).

For one series, the system named is PGE2 production. Briefly: Inhibitory activity on PGE2 production in LPS-treated Raw264.7 cells (PGE2 immunoassay). Particulars: LPS 1 μg/mL; for IC50: mean of three measurements, read-out: Inhibition of PGE2 production IC50. Type of series: cell-based, mouse. On the procedure:
Raw264.7 cells (macrophage cell line from mouse) were obtained from Korean Cell Line Bank (KCLB) and cultured in Dulbecco's modified Eagle's medium (DMEM) containing 10% Fetal Bovine Serum (FBS), penicillin (100 units/mL), streptomycin sulfate (100 μg/mL) at 37° C. and 5% CO2 in humidified environment. RAW264.7 cells at 5×10^5 cells/mL were seeded at 1 mL/well in 24 wells using DMEM, left overnight, replaced with a fresh medium and then treated with a test compound of an appropriate concentration. The cells were incubated for 1 hr and then treated with LPS at 1 μg/mL and incubated for 24 hrs (or proper period). A supernatant was taken and diluted five times. 150 μL of an analysis buffer was added to Non Specific Binding (NSB) well, and 100 μL of an analysis buffer was added to zero point standard (B0) well. 100 μL of a standard sample was added to the other wells and 50 μL of PGE2 conjugate was added (excluding NSB). 50 μL of PGE2 antibody solution was added and wells were shaken for 2 hrs. Each well was suctioned and washed with a wash buffer five times. Each 200 μL of para-Nitrophenyl phosphate (pNPP) substrate was added to the all wells and the wells were stored in a bench at room temperature for 1 hr. 50 μL of stop solution was added and an absorbance was measured at 405 nm. The amount of PGE2 was quantified using the measured absorbance and a standard curve and compared to a group treated with LPS only to obtain a concentration inhibiting 50% (IC50). The results are shown in the following Table 1 and the presented values are means of three measurements.

The test system of another series is Raw264.7 cells. Briefly: Measurement of cell viability (MTT). Type of series: cell-based, mouse. Particulars: with LPS 1 μg/mL, 24 hrs, mean of three measurements, read-out: Cell viability (IC50 for cell toxicity). On the procedure:
Raw264.7 cells (macrophage cell line from mouse) were obtained from Korean Cell Line Bank (KCLB) and cultured in Dulbecco's modified Eagle's medium containing 10% FBS, penicillin (100 units/ml), streptomycin sulfate (100 μg/ml) at 37° C. and 5% CO2 in humidified environment.
Cells were collected by centrifugation and scraping, and seeded at 1×10^5 cells/well in a 96 well plate containing 100 μl of RPMI 1640 medium with 10% FBS. 3β, 4β-epoxy-8α-isobutyryloxyguaia-1(10), 11, (13)-diene-12.6α-olide was dissolved in dimethylsulfoxide (DMSO) solvent and the concentration of DMSO was not more than 0.1% in all experiments. Next day, test compounds and LPS (1 μg/mL) were added and the plate were cultured for 24 hrs. After washing cells once, 50 μl of the medium containing 5 mg/ml MTT but without FBS was added and cells were cultured at 37° C. for 4 hrs. And then, the medium was removed, formazan blue formed in the cells was dissolved in 100 μl of DMSO, and an absorbance was measured at 540 nm to obtain IC50 values for cell toxicity. […] The results are shown in the above Table 1 and the values are means of three measurements.

For orientation: IC50 means the point on the concentration scale where inhibition reaches its midpoint. For `Cc1ccc(OC(=O)NN(c2ccccc2)S(=O)(=O)c2ccc(C)cc2)cc1` [Example 2, N-phenyl-N′-(4-methylphenoxycarbonyl)-4-methylphenylsulfonhydrazide], the IC50 in the series on PGE2 production was 1010 nM; with Raw264.7 cells, above 10000 nM. The “Inhibition of PGE2 production %” value in the series on PGE2 production (compound at 1 μM) is listed as 49.7 (1)^ %.
Take `COc1ccccc1OC(=O)NN(c1ccccc1)S(=O)(=O)c1ccc(C)cc1` [Example 3, N-phenyl-N′-(2-methoxyphenoxycarbonyl)-4-methylphenylsulfonhydrazide]: the IC50 with PGE2 production was 34 nM; with Raw264.7 cells, above 100 nM. The “Inhibition of PGE2 production %” value in the series with PGE2 production (compound at 0.1 μM) is given as 91.9 (0.1) %.
Turning to `COc1ccc(S(=O)(=O)N(NC(=O)Oc2ccc(OCc3ccccc3)cc2)c2ccccc2)cc1` [Example 4, N-phenyl-N′-(4-benzyloxyphenoxycarbonyl)-4-methoxyphenylsulfonhydrazide], the IC50 was 50 nM in the series on PGE2 production and above 1000 nM in the series on Raw264.7 cells. Further, the “Inhibition of PGE2 production %” value in the series on PGE2 production (compound at 0.1 μM) is listed as 62.8 (0.1) %.
On the same counts, the results for `CCOc1ccc(OC(=O)NN(c2ccccc2)S(=O)(=O)c2ccc(OC)cc2)cc1` [Example 5, N-phenyl-N′-(4-ethoxyphenoxycarbonyl)-4-methoxyphenylsulfonhydrazide] are 20.5 nM, above 100 nM and 94.1 (0.1) %.
Regarding `COc1ccc(S(=O)(=O)N(NC(=O)Oc2ccc(Oc3ccccc3)cc2)c2ccccc2)cc1` [Example 6, N-phenyl-N′-(4-phenoxyphenoxycarbonyl)-4-methoxyphenylsulfonhydrazide], the IC50 in the series on PGE2 production is 17.1 nM; in the series with Raw264.7 cells, above 100 nM. The “Inhibition of PGE2 production %” value with PGE2 production (compound at 0.1 μM) is on record as 93.4 (0.1) %.
As to `CCc1ccc(OC(=O)NN(c2ccccc2)S(=O)(=O)c2ccc(OC)cc2)cc1` [Example 7, N-phenyl-N′-(4-ethylphenoxycarbonyl)-4-methoxyphenylsulfonhydrazide], the IC50 with PGE2 production was 28.5 nM; in the series on Raw264.7 cells, above 100 nM. In addition, the “Inhibition of PGE2 production %” value in the series on PGE2 production (compound at 0.1 μM) is 90.9 (0.1) %.
`Cc1ccc(S(=O)(=O)N(NC(=O)Oc2ccc(OCc3ccccc3)cc2)c2ccccc2)cc1` [Example 8, N-phenyl-N′-(4-benzyloxyphenoxycarbonyl)-4-methylphenylsulfonhydrazide]: the IC50 with PGE2 production was 32.6 nM; in the series on Raw264.7 cells, above 100 nM. In addition, the “Inhibition of PGE2 production %” value in the series with PGE2 production (compound at 0.1 μM) is given as 66.6 (0.1) %.
As for `COc1ccc(S(=O)(=O)N(NC(=O)Oc2ccc3c(c2)CCC3)c2ccccc2)cc1` [Example 9, N-phenyl-N′-(2,3-dihydro-1H-inden-5-oxycarbonyl)-4-methoxyphenylsulfonhydrazide], the IC50 is 4.5 nM with PGE2 production and above 100 nM in the series on Raw264.7 cells. Also, the “Inhibition of PGE2 production %” value in the series on PGE2 production (compound at 0.01 μM) was 79.5 (0.01) %.
On the same counts, the results for `O=C(NN(c1ccccc1)S(=O)(=O)c1ccc(Cl)cc1)Oc1ccccc1` [Example 10, N-phenyl-N′-phenoxycarbonyl-4-chlorophenylsulfonhydrazide] are 5.42 nM, above 10000 nM and 81.8 (0.01) %.
On the same counts, the results for `COc1ccccc1OC(=O)NN(c1ccccc1)S(=O)(=O)c1ccc(Cl)cc1` [Example 11, N-phenyl-N′-(2-methoxyphenoxycarbonyl)-4-chlorophenylsulfonhydrazide] are 3.52 nM, above 10000 nM and 85.9 (0.01) %.
In the case of `CCc1ccc(OC(=O)NN(c2ccccc2)S(=O)(=O)c2ccc(Cl)cc2)cc1` [Example 12, N-phenyl-N′-(4-ethylphenoxycarbonyl)-4-chlorophenylsulfonhydrazide], the IC50 is 3.7 nM with PGE2 production and above 10000 nM with Raw264.7 cells. In addition, the “Inhibition of PGE2 production %” value with PGE2 production (compound at 0.01 μM) was 80.5 (0.01) %.
For `CCOc1ccc(OC(=O)NN(c2ccccc2)S(=O)(=O)c2ccc(Cl)cc2)cc1` [Example 13, N-phenyl-N′-(4-ethoxyphenoxycarbonyl)-4-chlorophenylsulfonhydrazide], in that order: 5.02 nM, above 10000 nM and 74.8 (0.01) %.
For `O=C(NN(c1ccccc1)S(=O)(=O)c1ccc(Cl)cc1)Oc1ccc(Oc2ccccc2)cc1` [Example 14, N-phenyl-N′-(4-phenoxyphenoxycarbonyl)-4-chlorophenylsulfonhydrazide], in that order: 5.09 nM, above 10000 nM and 67.8 (0.01) %.
As to `O=C(NN(c1ccccc1)S(=O)(=O)c1ccc(Cl)cc1)Oc1ccc(OCc2ccccc2)cc1` [Example 15, N-phenyl-N′-(4-benzyloxyphenoxycarbonyl)-4-chlorophenylsulfonhydrazide], the concentration for half-maximal inhibition (IC50) in the series with PGE2 production is 3.42 nM; with Raw264.7 cells, above 10000 nM. Further, in the series on PGE2 production (compound at 0.01 μM), the “Inhibition of PGE2 production %” value is 84.5 (0.01) %.
Consider `CCCc1ccc(S(=O)(=O)N(NC(=O)Oc2ccc(Oc3ccccc3)cc2)c2ccccc2)cc1` [Example 20, N-phenyl-N′-(4-phenoxyphenoxycarbonyl)-4-n-propylphenylsulfonhydrazide], for which the IC50 is 134 nM in the series with PGE2 production and above 10000 nM in the series with Raw264.7 cells. Moreover, the “Inhibition of PGE2 production %” value with PGE2 production (compound at 0.1 μM) was 45.4 (0.1) %.
With `O=C(NN(c1ccccc1)S(=O)(=O)c1ccc(C(F)(F)F)cc1)Oc1ccc(OCc2ccccc2)cc1` [Example 21, N-phenyl-N′-(4-benzyloxyphenoxycarbonyl)-4-trifluoromethylphenylsulfonhydrazide], the IC50 in the series on PGE2 production was 47.1 nM; with Raw264.7 cells, above 100 nM. In addition, the “Inhibition of PGE2 production %” value with PGE2 production (compound at 0.1 μM) is recorded as 65.5 (0.1) %.
For `CC(C)(C)c1ccc(S(=O)(=O)N(NC(=O)Oc2ccc(OCc3ccccc3)cc2)c2ccccc2)cc1` [Example 22, N-phenyl-N′-(4-benzyloxyphenoxycarbonyl)-4-t-butylphenylsulfonhydrazide], in that order: 56.9 nM, above 100 nM and 69.8 (0.1) %.
For the compound `CC(C)(C)c1ccc(S(=O)(=O)N(NC(=O)Oc2ccc(Oc3ccccc3)cc2)c2ccccc2)cc1` [Example 23, N-phenyl-N′-(4-phenoxyphenoxycarbonyl)-4-t-butylphenylsulfonhydrazide], the IC50 is 99.6 nM with PGE2 production and above 1000 nM in the series on Raw264.7 cells. For the same compound, the “Inhibition of PGE2 production %” value in the series on PGE2 production (compound at 0.1 μM) is 67.9 (0.1) %.
On the same counts, the results for `CC(C)c1ccc(S(=O)(=O)N(NC(=O)Oc2ccc(Oc3ccccc3)cc2)c2ccccc2)cc1` [Example 24, N-phenyl-N′-(4-phenoxyphenoxycarbonyl)-4-i-propylphenylsulfonhydrazide] are 130 nM, above 1000 nM and 65.4 (0.1) %.
With `Cc1ccc(S(=O)(=O)N(NC(=O)Oc2ccc3c(c2)CCC3)c2ccccc2)cc1` [Example 25, N-phenyl-N′-(2,3-dihydro-1H-inden-5-oxycarbonyl)-4-methylphenylsulfonhydrazide], the IC50 is 66.7 nM with PGE2 production and above 1000 nM with Raw264.7 cells. In addition, the “Inhibition of PGE2 production %” value in the series with PGE2 production (compound at 0.1 μM) is 40.4 (0.1) %.
In the case of `O=C(NN(c1ccccc1)S(=O)(=O)c1ccc(Cl)cc1)Oc1ccc2c(c1)CCC2` [Example 26, N-phenyl-N′-(2,3-dihydro-1H-inden-5-oxycarbonyl)-4-chlorophenylsulfonhydrazide], the IC50 in the series on PGE2 production was 70.5 nM; in the series with Raw264.7 cells it was above 1000 nM. For the same compound, the “Inhibition of PGE2 production %” value with PGE2 production (compound at 0.1 μM) was 45.8 (0.1) %.
For `O=C(NN(c1ccccc1)S(=O)(=O)c1ccc(C(F)(F)F)cc1)Oc1ccc2c(c1)CCC2` [Example 27, N-phenyl-N′-(2,3-dihydro-1H-inden-5-oxycarbonyl)-4-trifluorophenylsulfonhydrazide], in that order: 55.8 nM, above 1000 nM and 51.1 (0.1) %.
For “N-phenyl-N′-(4-benzyloxyphenoxycarbonyl)-2-mesitylenesulfonhydrazide [Example 17]”, the IC50 in the series on PGE2 production was 81.5 nM; in the series with Raw264.7 cells it was above 1000 nM. For the same compound, the “Inhibition of PGE2 production %” value in the series on PGE2 production (compound at 0.1 μM) is given as 60.0 (0.1) %.
Turning to “N-phenyl-N′-(4-phenoxyphenoxycarbonyl)-2-mesitylenesulfonhydrazide [Example 16]”, the IC50 in the series on PGE2 production is 177 nM; with Raw264.7 cells it was above 1000 nM. Besides, in the series with PGE2 production (compound at 0.1 μM), the “Inhibition of PGE2 production %” value is given as 39.8 (0.1) %.
